The assay relates to Pink1^-/- CD8^+ T cells. Description: In vitro stimulation of Pink1-/- T cells in presence of UA. The format is cell-based, Pink1^-/- mice. The method, then: (FIG. 4A) Scheme of CD3+ T-cell activation and analysis for various timepoints in order to investigate mitophagy induction in vitro. (FIG. 4B) Analysis of mitochondrial membrane potential within CD8+ T cells, with TMRM^lo representing cells with low mitochondrial membrane potential. Analysis was performed six hours after stimulation with aCD/aCD28 stimulation beads at the presence of the indicated treatments. N=4 per group, *p < 0.05 by Mann Whitney U test. One of two independent experiments are shown. (FIG. 4C) Representative flow histogram and quantification of lysosome formation in CD8+ cells six hours after in vitro stimulation. MFI shown relative to DMSO controls, n=4. Data are normalised mean ± SD, statistical analysis by two-sided t-test. One out of two independent experiments are shown. (FIG. 4D) Mitotracker Red staining of in vitro stimulated CD8+ cells after 24 hours of Urolithin A (UA25 n=6; UA50 n=6) or vehicle control treatment (DMSO: n=4). A representative flow histogram depicting identification of Mitotracker^hi cells is shown. Data are mean ± SD, statistical analysis was performed by two-sided t-test (*p < 0.05; ***p <0.001; ****p < 0.0001). Experiment was repeated twice. (FIG. 4E) Subset-specific identification of Mitotracker red accumulation after 24 hours of in vitro stimulation either with vehicle control (DMSO) or 50 µM Urolithin A (n=5). Subsets were identified was depicted in the FIGS. 7-9. Data are mean ± SD, statistical analysis by two-sided t-test (* p<0.05, *** p<0.001 and **** p<0.0001). (FIG. 4F) qPCR analysis of various autophagy/mitophagy associated genes of in vitro activated CD3+ cells, 24 h after activation (n=3). Data are ± SEM, statistical analysis was performed by two-sided t-test (*p < 0.05,**p < 0.01). Overall p value is given for the comparison over the entire panel of genes after two-way ANOVA test. (FIG. 4G) Western blot of Parkin protein expression in UA or DMSO (n=3) treated cells after 24 h. Cells were stimulated at the presence of plate-bound aCD3/aCD28 antibodies. […] (FIG. 4H) CD8+ cells from Pink1^-/- mice display deficient mitophagy upon UA treatment in vitro: Lysosome formation in CD8+ of Pink1^-/- mice as assessed by Lysotracker staining 6h post stimulation at the presence of UA or DMSO (n=4). Data are mean ± SD, one out of two independent experiments are shown. (FIG. 4I) CD8+ cells from Pink1^-/- mice display deficient mitophagy upon UA treatment in vitro: Mitotracker red staining of Pink1^-/- CD8+ stimulated in vitro for 48 h, either in the presence of UA or DMSO (n=4). Percentage of Mitotracker^hi CD8+ cells are shown. Data are mean ± SD and acquired via flow cytometry. One out of two independent experiments are shown. Statistical analysis was performed by two-sided t-test (n.s., not significant). (FIG. 4J) CD8+ cells from Pink^-/- mice fail to reprogram to TSCM after UA exposure in vitro: TSCM formation in Pink1^-/- CD8+ cells 48 h after stimulation in the presence of UA (25 µM and 50 µM) and DMSO (n=4, respectively). Data are mean ± SD, statistical analysis was performed by two-sided t-test (***p <0.001). Data depicts results of three independent experiments. (FIG. 4K) Expression of TCF1 in naïve-like CD62L^+CD44^-CD8^+ Pink1^-/- cells. Data are ± SD, depicted as MFI (***p <0.001 by two-sided t-test). (FIG. 4L) Growth curve of Pink1^-/- mice s.c. injected with APTK-organoids, fed UA-rich or control diet as depicted in FIG. 1J. n=4 per group. Data are mean ± SD. (FIG. 4M) Flow cytometry analysis of TIL in Pink ^-^/- mice s.c. transplanted with APTK tumors, fed either UA or control diet. Quantification of TCF1^hi cells among CD8. (FIG. 4N) Quantification of PD1^hi cells among CD8. (FIG. 4O) Quantification of and Tim3^hi cells among CD8. (FIG. 4P) Ex vivo cytokine release assay. TIL of Pink1^-/- from FIG. 4L were stimulated ex vivo with PMA and lonomycin, in the presence of Brefeldin A for three hours. Data depicts percentage of TNFα^hi cells within the CD8+ compartment. All data are mean ± SD (n=4). […]

For the compound `O=c1oc2cc(O)ccc2c2ccc(O)cc12` [Urolithin A], the “TCF-1 in CD44-CD62L+CD8+ T cells” value is recorded as “expressed less TCF-1”. Moreover, the “cytoplasmic expression of Pgam5” value (6 h, upon UA exposure) is listed as “lack of cytoplasmic expression of Pgam5”. Besides, the UA-induced lysosome formation result (6h post stimulation) is “prevented”. Also, for the setting “48 h”, the PGC-1α expression entry is given as “failed to enhance” and the “UA-induced decrease in mitochondrial content” value is given as “prevented”. In addition, the TSCM phenotype entry (48 h, UA 25 µM and 50 µM) is recorded as “failed to exhibit a TSCM phenotype”.

These data come from patent US20230277669A1, “USES OF UROLITHINS” (Amazentis SA, priority 2022, published 2023).
